In patent US12366579B2, “Sulfur-heterocycle exchange chemistry and uses thereof” (University of Virginia Patent Foundation, priority 2019, dated 2025):
Entries after “also recorded” stand apart in the source; their conditions may differ.

Columns and labels:
[1] = biological target: T1, human fumarylacetoacetase (FAAA) (Homo sapiens, UniProt P16930); assay: Chemical proteomics analysis and gel-based screen of human FAAA with HHS SuTEx ligands; type: binding
T1 construct: made in house; host or cells: HEK293T, soluble proteome
T1 sequence (P16930 whole entry): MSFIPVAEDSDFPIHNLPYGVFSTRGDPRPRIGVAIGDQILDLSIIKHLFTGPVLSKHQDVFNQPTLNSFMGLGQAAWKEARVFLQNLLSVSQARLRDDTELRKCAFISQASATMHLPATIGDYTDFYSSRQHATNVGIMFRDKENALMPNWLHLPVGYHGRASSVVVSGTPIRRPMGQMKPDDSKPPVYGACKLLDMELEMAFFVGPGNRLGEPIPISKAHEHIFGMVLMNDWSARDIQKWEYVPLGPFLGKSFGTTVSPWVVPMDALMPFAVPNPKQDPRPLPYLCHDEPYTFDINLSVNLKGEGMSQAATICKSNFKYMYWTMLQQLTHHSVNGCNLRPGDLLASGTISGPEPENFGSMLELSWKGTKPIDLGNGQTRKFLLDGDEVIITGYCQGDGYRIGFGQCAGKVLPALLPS
Procedure: FIGS. 44A-44C. Modification of human fumarylacetoacetase (FAAA) with HHS SuTEx ligands. FIG. 44A is a series of graphs showing the chemical proteomics analysis of human FAAA using an HHS SuTEx ligand, HHS0401 (25 μM) shown in FIG. 43. HHS0401 modifies the tyrosine at residue 244. FIG. 44B is an image of a gel-based chemical proteomic screen for human FAAA fragment ligands. Recombinant hFAAA-HEK293T soluble proteomes pretreated with indicated fragment (25 μM, 120 min) followed by labeling with HHS-475 (100 μM, 120 min).
(§1) In addition, SuTEx fragment EKT231 (see FIG. 46A) modifies EDC3 at tyrosine 475.

[2] = biological target: human prostaglandin reductase 2 (PTGR2) (Homo sapiens, UniProt Q8N8N7); assay: Chemical proteomics analysis and gel-based screen of human PTGR2 with HHS SuTEx ligands; type: binding
Sequence of human prostaglandin reductase 2 (PTGR2) (Q8N8N7 whole entry): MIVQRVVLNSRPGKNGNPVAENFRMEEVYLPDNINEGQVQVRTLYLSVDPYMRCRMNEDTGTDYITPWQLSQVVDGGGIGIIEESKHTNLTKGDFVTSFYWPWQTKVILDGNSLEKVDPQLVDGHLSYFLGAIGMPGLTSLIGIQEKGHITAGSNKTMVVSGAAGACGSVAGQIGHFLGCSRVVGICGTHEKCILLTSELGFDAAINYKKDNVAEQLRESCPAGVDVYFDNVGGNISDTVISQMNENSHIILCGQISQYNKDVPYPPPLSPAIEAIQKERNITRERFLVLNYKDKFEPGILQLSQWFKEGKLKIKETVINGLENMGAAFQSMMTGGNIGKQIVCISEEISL
From the text: FIGS. 45A and 45B: Modification of human prostaglandin reductase 2 (PTGR2) with HHS SuTEx ligands. HHS0701 modifies the tyrosine at residue 100.
as §1

[3] = system: DM93 and HEK293T cells; assay: Proteome-wide profiling of sulfonyl imidazole analogs in live cells; type: cell-based, human; conditions: 100 μM, 2 hours, 37° C.
Procedure: A chemical proteomic treatment and analysis protocol was established to evaluate the structural-induced effect on the proteomic coverage of the sulfonyl imidazole analogs. […] Duke Melanoma 93 (DM93) and human embryonic kidney 293T (HEK293T) cells were treated with the probes (100 μM, 2 hours, 37° C.). The cells were harvested, washed and fractionated to expose the proteome. The cytosolic proteome subsequently underwent copper-catalyzed azide-alkyne cycloaddition (CuAAC) with a dethiobiotin PEG-3 azide tag. The tagged proteomes were digested with trypsin lys-C protease mixture, enriched by avidin affinity chromatography, eluted and analyzed by chromatography-tandem high-resolution mass spectrometry (LC-MS). The bioinformatic match of probe modified peptides was filtered with data confidence control criteria of ≥300 Byonic score, ≥3 log probability and ≤5 ppm mass accuracy (amino acid residue modifications of Y, K, N, Q, and W were processed at this point).

[4] = biological target: T2, purified DPP3 (Homo sapiens, UniProt Q9NY33); assay: DPP3 biochemical substrate assay (Arg-Arg β-naphthylamide peptidase assay); conditions: negative control with cyclopropyl-modified AG
T2 sequence (Q9NY33 1-737): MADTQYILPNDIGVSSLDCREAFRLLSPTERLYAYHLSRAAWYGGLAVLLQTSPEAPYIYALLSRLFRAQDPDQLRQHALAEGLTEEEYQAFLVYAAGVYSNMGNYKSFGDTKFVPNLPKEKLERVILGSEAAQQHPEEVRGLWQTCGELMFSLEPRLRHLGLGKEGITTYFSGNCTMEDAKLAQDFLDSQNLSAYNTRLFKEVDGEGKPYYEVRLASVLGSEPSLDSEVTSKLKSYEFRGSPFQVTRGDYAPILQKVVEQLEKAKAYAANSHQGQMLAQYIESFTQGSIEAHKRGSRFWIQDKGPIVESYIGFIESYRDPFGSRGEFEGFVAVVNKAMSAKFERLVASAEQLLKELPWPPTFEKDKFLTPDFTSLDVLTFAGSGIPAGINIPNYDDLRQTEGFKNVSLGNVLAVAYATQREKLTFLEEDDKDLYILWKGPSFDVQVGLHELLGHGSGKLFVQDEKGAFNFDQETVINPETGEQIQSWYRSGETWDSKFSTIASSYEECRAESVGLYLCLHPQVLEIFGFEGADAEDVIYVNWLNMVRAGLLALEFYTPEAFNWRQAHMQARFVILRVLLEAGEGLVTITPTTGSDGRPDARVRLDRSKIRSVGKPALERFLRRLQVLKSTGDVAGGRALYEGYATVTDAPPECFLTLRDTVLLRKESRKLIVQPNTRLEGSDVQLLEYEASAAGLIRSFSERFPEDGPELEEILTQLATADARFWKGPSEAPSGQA
Procedure: DPP3 Biochemical Substrate Assay
Substrate assays were performed using purified DPP3 protein diluted to 5 ng/μL in assay buffer. DPP3 samples (10 μl) were diluted to 85 μl with assay buffer and transferred to a black 96-well plate. Samples were treated with a 50× stock of SuTEx-fragment at indication concentration for 30 min at 37° C. A stock solution of DPP3 substrate (Arg-Arg β-naphthylamide trihydrochloride, 0.5 mM: Sigma-Aldrich. St, Louis, Missouri, United States of America) was diluted to 100 μM in assay buffer. Substrate solution (5 μl) was added to each sample. Samples were mixed briefly by shaking and reaction monitored in kinetic mode by measuring fluorescence at 450 nm for 10 min on a BMG Labtech CLARIOstar plate reader (BMG Labtech, Cary, North Carolina, United States of America).

[5] = system: DM93 soluble proteomes; assay: Proteome-wide competitive chemical proteomics of SuTEx fragments vs HHS-482; type: binding, human; conditions: fragment 50 μM, 30 min, 37° C.
Procedure: Heavy and light proteomes (432 μl of each) were diluted to 2.3 mg ml^−1 in PBS and sample aliquots (432 μl) were treated with SuTEx fragment at the indicated concentrations (5 μl, 100× stock in DMSO), mixed gently and incubated for 30 min at 37° C. Samples were then treated with HHS-482 (5 μL, 5 mM stock in DMSO) for 30 min at 37° C. Probe-modified proteomes were conjugated to desthiobiotin-PEG3-azide followed by enrichment of probe-modified peptides for nano-electrospray ionization-LC-MS/MS analyses as previously described^57.
The chemical proteomic method for functional tyrosine profiling^72 was tailored to investigate AG/LG effects on SuTEx fragment reactivity in complex proteomes. In brief, isotopically light and heavy soluble proteomes from DM93 melanoma cells cultured by stable isotopic labeling by amino acids in cell culture (SILAC^80) media were used for quantitative liquid chromatography-mass spectrometry (LC-MS) studies. Light and heavy DM93 proteomes were treated with dimethyl sulfoxide (DMSO) vehicle or SuTEx fragment (50 μM, 30 min, 37° C.), respectively, followed by labeling with the tyrosine-reactive probe HHS-482 described hereinabove (50 μM, 30 min, 37° C.) and copper-catalyzed azide-alkyne cycloaddition (CuAAC) conjugation of a desthiobiotin-azide enrichment tag. Proteomes were digested with trypsin protease, HHS-482-modified peptides enriched by avidin chromatography and analyzed by high-resolution LC-MS/MS and bioinformatics as described hereinabove.
To evaluate substituent effects on proteome activity, reactivity profiles of each respective SuTEx fragment were compared across >1500 total distinct HHS-482-modified tyrosine sites from >650 detected proteins. Fragments were screened across independent biological replicates (n=2-3) and high-quality tyrosine site annotations were identified by detection in at least a single biological replicate from each fragment dataset, probe-specific enrichment (HHS-482 probe/DMSO SILAC ratio (SR)>5), and quality control confidence criteria of ≥300 Byonic score^31, […] protein false discovery rate (FDR), and ≤5 ppm mass accuracy in order to minimize the potential for false positives^72. SILAC ratios (SR) from competitive studies (Light-DMSO/Heavy-fragment) were used to identify fragment-competed tyrosine residues as sites showing >75% reduction in enrichment by HHS-482 compared with DMSO vehicle control (i.e. liganded tyrosines, SR>4). In total, 305 liganded tyrosines on 213 distinct proteins were identified, corresponding to ˜30% and ˜44% of total quantified tyrosines and proteins, respectively. […]

[6] = biological target: T3, recombinant GSTP1 lysates (Homo sapiens, UniProt P09211); assay: GSTP1 biochemical substrate assay (GSH conjugation to BDNB); conditions: negative control probes; highest concentration tested 100 μM
T3 construct: FLAG (C); host or cells: HEK293T, transient transfection; soluble proteome used unpurified
T3 sequence (P09211 whole entry): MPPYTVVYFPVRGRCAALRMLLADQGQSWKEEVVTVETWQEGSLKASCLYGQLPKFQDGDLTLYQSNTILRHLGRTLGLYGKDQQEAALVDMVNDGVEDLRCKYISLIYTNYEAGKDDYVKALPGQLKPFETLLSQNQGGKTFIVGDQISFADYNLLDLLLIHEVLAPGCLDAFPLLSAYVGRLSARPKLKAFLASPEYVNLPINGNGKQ
Procedure: GSTP1 Biochemical Substrate Assay
Recombinant GSTP1-HEK293T soluble cell proteomes were diluted to 1 mg ml^−1 in assay buffer (100 mM NaH2PO4, pH 7.0). Samples were treated with inhibitor at indicated concentrations for 30 min at 37° C. GSH stock solution (250 mM in water) was diluted to 4 mM in assay buffer and 25 μl of diluted GSH solution was added to each sample. A substrate stock solution of 75 mM 1-bromo-2,4-dinitrobenzene […] in ethanol was diluted to 2 mM in assay buffer. Samples (25 μl) were aliquoted into a 96-well plate and spun briefly via centrifuge. Next, 50 μl of 2 mM BDNB was added to each well and the reaction was monitored in kinetic mode by measuring absorbance at 340 nm for 10 min on a BMG Labtech CLARIOstar plate reader (BMG Labtech, Cary, North Carolina, United States of America).

[7] = system: A549 cells; assay: Chemical phosphoproteomics of pervanadate-activated cells by SuTEx probe labeling (SILAC); type: cell-based, human; conditions: pervanadate 100 μM, 30 min, HHS-475 100 μM
Procedure: Pervanadate (100 mM) was prepared as previously described^41 by mixing 100 μL of sodium orthovanadate (100 mM Na3VO4, New England BioLabs #P0758S, Ipswich, Massachusetts, United States of America) with 1 μL of hydrogen peroxide (H2O2, 30% v/v in water) on ice. […] After pervanadate treatment, cells were washed twice with cold PBS followed by harvest. Cell pellets were resuspended in PBS supplemented with protease and phosphatase inhibitor mini tablets (Thermo Scientific #A32959; ThermoFisher Scientific, Waltham, Massachusetts, United States of America) and then lysed by sonication (3×1 sec pulse, 20% amplitude). For CTNND1 western blot studies, cell pellets were lysed in NP40 Cell Lysis Buffer (#FNN0021, Invitrogen, Carlsbad, California, United States of America) supplemented with protease/phosphatase inhibitor tablets. Cell lysates were separated via centrifugation at 100,000×g for 45 min at 4° C. for western blot or chemical proteomic studies. Note: pervanadate treatments are performed on live cells but SuTEx probe labeling occurs in proteomes in vitro.
Proteomes from cells treated with pervanadate activation conditions (100 μM, 30 min) were labeled with HHS-475 or HHS-482 (100 μM, 30 min) followed by CuAAC with desthiobiotin and quantitative LC-MS to evaluate how phosphorylation status affected SuTEx probe labeling. […] In total ˜2,200 probe-modified tyrosine sites were detected across ˜1,000 proteins using both HHS-475 and HHS-482 that were further separated into pervanadate-sensitive (PerS, SR≥2) and -insensitive groups (PerI, SR<2). The probe-modified tyrosines found in the PerS group appeared to be enriched for annotated phosphotyrosine sites (HTP≥10 in PhosphoSitePlus, see FIGS. 6C and 18) and represented only a small fraction of all unique HHS-475- and HHS-482-modified tyrosines detected by chemical proteomics (˜3%, 67 sites). […]

O=C(NCc1ccccc1)c1ccc(S(=O)(=O)n2cnnc2)cc1 [HHS0401]
inhibition of FAAA, gel-based chemical proteomic analysis ([1]; FIG. 44C): dose-dependent inhibition | tyrosine residue of FAAA modified ([1]; ligand 25 μM): 244

O=C(c1ccc(S(=O)(=O)n2cnnc2)cc1)N1CCC(c2ccccc2)CC1 [HHS0701]
inhibition of PTGR2, gel-based chemical proteomic screen ([2]; FIG. 45B): dose-dependent inhibition | tyrosine residue of PTGR2 modified ([2]; ligand 25 μM): 100

C#CCNC(=O)c1ccc(S(=O)(=O)n2ccnc2)cc1 [HHS-Im-01, 4-((1H-imidazol-1-yl)sulfonyl)-N-(prop-2-yn-1-yl)benzamide]
Y/K specificity [3]: 0.77 | overall reactivity towards tyrosine and lysine residues (number of sites) [3]: 329

COc1ccc(-c2ncn(S(=O)(=O)C3CC3)n2)cc1 [JWB131, 1-(Cyclopropylsulfonyl)-3-(4-methoxyphenyl)-1H-1,2,4-triazole]
activity against DPP3 in substrate assay [4]: inactive | reactivity against the proteome [5]: largely unreactive

O=S(=O)(C1CC1)n1cnc(-c2ccncc2)n1 [JWB191, 4-(1-(Cyclopropylsulfonyl)-1H-1,2,4-triazol-3-yl)pyridine]
inhibitory activity against GSTP1 [6]: lack of activity; also recorded: did not show inhibitory activity

C#CCNC(=O)c1ccc(S(=O)(=O)n2cnc(C(F)(F)F)c2)cc1 [KY-Im-TFM, N-(prop-2-yn-1-yl)-4-((4-(trifluoromethyl)-1H-imidazol-1-yl)sulfonyl)benzamide]
Y/K specificity [3]: 3.58 | overall reactivity towards tyrosine and lysine residues (number of sites) [3]: 338

pervanadate
SILAC ratio (SR, light PBS/heavy pervanadate) of SuTEx probe labeling at CTNND1 Y228 [7]: 3.3 | SILAC ratio (SR, light PBS/heavy pervanadate) of SuTEx probe labeling at PKM Y105 [7]: 1.1 | SILAC ratio (SR, light PBS/heavy pervanadate) of SuTEx probe labeling at STAT3 Y705 [7]: 2.3
